Assay results: US20190169218A1, “AMPHIPATHIC COMPOUND HAVING NOVEL PENTA-SACCHARIDE HYDROPHILIC GROUP AND USE THEREOF” (Industry-University Cooperation Foundation Hanyang …, priority 2016, published 2019)

Assays:
[1] = critical micelle concentration (CMC) by hydrophobic fluorescent staining with diphenylhexatriene (DPH); type: physicochemical
Method in brief: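 CMC determined by hydrophobic fluorescent staining with diphenylhexatriene (DPH); micelle hydrodynamic radius measured separately by dynamic light scattering at 1.0 wt %, with DDM as reference detergent.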

[2] = target: T1, human β2 adrenergic receptor (β2AR) (Homo sapiens, UniProt P07550); experiment: bimane fluorescence spectrum of mBBr-β2AR solubilized in amphipathic compounds; settings: 0.1 wt % compound
T1 construct: Flag; made in house
Protocol: The structural stability of monobromobimane-labeled β2ARs (mBBr-β2ARs) solubilized in PSAs and PSEs was evaluated in the presence of a high-affinity agonist BI (BI-167107).
Specifically, monobromobimane (mBBr)-labeled β2ARs (mainly labeled on Cys265) was used to measure changes in a fluorescence spectrum induced by a local structural change near transmembrane helix 6 (TM6) (see Yao, X. et al., Nat. Chem. Biol. 2006, 2, 417-422.). 0.5 μL of BI (agonist)-bound mBBr-β2ARs dissolved at a concentration of […] in 0.1 wt % DDM was diluted with 500 μL of a buffer solution containing 0.1 wt % of each of the novel amphipathic compounds (PSA-C11, PSE-C11 and PSE-C13). After incubation of the protein samples for 30 minutes, the spectrum of mBBr was measured and compared with the spectrum of mBBr-labeled receptors dissolved in 0.1 wt % DDM. The 370 nm excitation wavelength was used for bimane fluorescence, and the emission spectra were measured at 430 to 510 nm using a Spex FluoroMax-3 spectrometer (Jobin Yvon Inc.) at 0.5 nm s^−1 in 1-nm units, and the photon counting mode was set to a 4-nm emission bandwidth pass. mBBr-labeled β2ARs dissolved in DDM were used as a positive control group. Data is representative of three independent experiments.
The structural change and structural stability of mBBr-β2ARs by PSAs/PSEs and DDM according the presence or absence of a full agonist (isoproterenol, ISO) or the combination of ISO and a G-protein were measured. It is well known that a full agonist (e.g., BI) and the binding of a Gs-protein are simultaneously required for full activation of receptors (see Rasmussen, S. G. F. et al., Nature 2011, 469, 175-180.).
Specifically, G protein coupling experiments were performed using the following method. 0.5 μL of non-ligand mBBr-labeled receptors at a concentration of 50 μM was diluted with 500 μL of a buffer solution containing a 0.1 wt % amphipathic compound at room temperature for 15 minutes. After dilution, a dilution containing the receptors at a final concentration of 50 nM was obtained. 2 μM isoproterenol (ISO) was added to the diluted solution, and the solution was incubated for an additional 15 minutes. 250 nM Gs-protein was additionally added to the solution, and then the protein samples included in the solution were incubated at room temperature for an additional 20 minutes. The 370 nm excitation wavelength was used for bimane fluorescence, and the emission spectra were measured at 430 to 510 nm using a Spex FluoroMax-3 spectrometer (Jobin Yvon Inc.) at 0.5 nm s^−1 in 1-nm units, and the photon counting mode was set to a 4-nm emission bandwidth pass. The same experiment was repeated using 0.1 wt % DDM, which was used as a positive control. Data is representative of three independent experiments.

[3] = in the presence of agonist BI (BI-167107)
[4] = in the presence of full agonist isoproterenol (ISO)

T1 sequence (P07550 whole entry): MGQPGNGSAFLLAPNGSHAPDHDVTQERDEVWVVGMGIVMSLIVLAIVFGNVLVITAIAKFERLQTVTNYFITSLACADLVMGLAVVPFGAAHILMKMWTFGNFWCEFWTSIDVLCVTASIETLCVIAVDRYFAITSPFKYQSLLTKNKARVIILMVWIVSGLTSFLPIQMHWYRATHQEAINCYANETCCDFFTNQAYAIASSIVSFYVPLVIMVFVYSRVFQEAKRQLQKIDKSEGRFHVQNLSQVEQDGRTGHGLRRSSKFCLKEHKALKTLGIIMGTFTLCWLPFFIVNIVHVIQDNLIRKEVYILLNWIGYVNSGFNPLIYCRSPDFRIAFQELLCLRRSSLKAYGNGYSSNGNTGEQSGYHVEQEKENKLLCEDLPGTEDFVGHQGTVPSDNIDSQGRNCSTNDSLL

CCCCCCCCCCCOCC(COCCCCCCCCCCC)O[C@@H]1OC(CO[C@@H]2OC(CO)[C@@H](O)C(O)C2O)[C@@H](O[C@@H]2OC(CO)[C@@H](O)C(O)C2O)C(O[C@@H]2OC(CO)[C@@H](O)C(O)C2O)C1O[C@@H]1OC(CO)[C@@H](O)C(O)C1O (stereo partly drawn) [PSE-C11]
CMC [1]: ~0.004 mM
CMC (wt %) [1]: ~0.0005 wt %
bimane fluorescence spectrum of mBBr-β2AR [2, 3]: very similar to that obtained from the receptors dissolved in DDM
bimane fluorescence spectrum of mBBr-β2AR [2, 4]: spectra similar to the receptor solubilized by DDM

CCCCCCCCCCCC(CCCCCCCCCCC)CO[C@@H]1OC(CO[C@@H]2OC(CO)[C@@H](O)C(O)C2O)[C@@H](O[C@@H]2OC(CO)[C@@H](O)C(O)C2O)C(O[C@@H]2OC(CO)[C@@H](O)C(O)C2O)C1O[C@@H]1OC(CO)[C@@H](O)C(O)C1O (stereo partly drawn) [PSA-C11]
CMC [1]: ~0.007 mM
CMC (wt %) [1]: ~0.0008 wt %
bimane fluorescence spectrum of mBBr-β2AR [2, 3]: very similar to that obtained from the receptors dissolved in DDM
bimane fluorescence spectrum of mBBr-β2AR [2, 4]: spectra similar to the receptor solubilized by DDM

CCCCCCCCCCCCCOCC(COCCCCCCCCCCCCC)O[C@@H]1OC(CO[C@@H]2OC(CO)[C@@H](O)C(O)C2O)[C@@H](O[C@@H]2OC(CO)[C@@H](O)C(O)C2O)C(O[C@@H]2OC(CO)[C@@H](O)C(O)C2O)C1O[C@@H]1OC(CO)[C@@H](O)C(O)C1O (stereo partly drawn) [PSE-C13]
CMC [1]: ~0.001 mM
CMC (wt %) [1]: ~0.0001 wt %
bimane fluorescence spectrum of mBBr-β2AR [2, 3]: somewhat different bimane fluorescence spectrum compared to the receptors dissolved in DDM

CCCCCCCCCCCCO[C@@H]1O[C@H](CO)[C@@H](O[C@H]2O[C@H](CO)[C@@H](O)[C@H](O)[C@H]2O)[C@H](O)[C@H]1O [DDM, n-dodecyl-β-D-maltopyranoside, reference compound]
CMC [1]: ~0.17 mM
CMC (wt %) [1]: ~0.0087 wt %

CCCCCCCCOCC(COCCCCCCCC)(COCCCCCCCC)CO[C@@H]1OC(CO[C@@H]2OC(CO)[C@@H](O)C(O)C2O)[C@@H](O[C@@H]2OC(CO)[C@@H](O)C(O)C2O)C(O[C@@H]2OC(CO)[C@@H](O)C(O)C2O)C1O[C@@H]1OC(CO)[C@@H](O)C(O)C1O (stereo partly drawn) [TPS-E8]
CMC [1]: ~0.007 mM
CMC (wt %) [1]: ~0.0009 wt %
